In the supplement of paper PMC10307832:

Assays:
Assay in all cases: relative viability (nuclei count vs DMSO), 5 days (fraction); higher = more cells survive
AZD1208 + Dasatinib = compound: N[C@@H]1CCCN(c2c(/C=C3\SC(=O)NC3=O)cccc2-c2ccccc2)C1 [AZD1208] + Cc1nc(Nc2ncc(C(=O)Nc3c(C)cccc3Cl)s2)cc(N2CCN(CCO)CC2)n1 [Dasatinib] (partner 0.075 µM)
Method in brief: (§1)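 A single step with final 0.05% Triton X-100, 1% formaldehyde and 1 ug/ml Hoechst fixed the cells and stained nuclei 5 days after treatment. Lung cancer cell lines in 1536-well plates had been treated by pin tool the day after seeding with one drug alone or a fixed anchor-drug dose plus five library-drug doses (not always all listed) in √10 steps, and nuclei were counted on 4× images. Relative viability is the ratio of nuclei in treated wells to nuclei in vehicle wells, taken as the median of duplicate plates.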

AZD1208 + Navitoclax = compound: N[C@@H]1CCCN(c2c(/C=C3\SC(=O)NC3=O)cccc2-c2ccccc2)C1 [AZD1208] + CC1(C)CCC(c2ccc(Cl)cc2)=C(CN2CCN(c3ccc(C(=O)NS(=O)(=O)c4ccc(N[C@H](CCN5CCOCC5)CSc5ccccc5)c(S(=O)(=O)C(F)(F)F)c4)cc3)CC2)C1 [Navitoclax] (partner 0.5 µM)
Method in brief: as §1

AZD1208 + AZD7762 = compound: N[C@@H]1CCCN(c2c(/C=C3\SC(=O)NC3=O)cccc2-c2ccccc2)C1 [AZD1208] + NC(=O)Nc1cc(-c2cccc(F)c2)sc1C(=O)N[C@H]1CCCNC1 [AZD7762] (partner 0.2 µM)
Method in brief: as §1

AZD1208 + Luminespib = compound: N[C@@H]1CCCN(c2c(/C=C3\SC(=O)NC3=O)cccc2-c2ccccc2)C1 [AZD1208] + CCNC(=O)c1noc(-c2cc(C(C)C)c(O)cc2O)c1-c1ccc(CN2CCOCC2)cc1 [Luminespib] (partner 0.01 µM)
Method in brief: as §1

| Cell Line | relative viability (AZD1208 + Dasatinib; first compound 0.08 µM) | relative viability (AZD1208 + Dasatinib; first compound 0.253 µM) | relative viability (AZD1208 + Dasatinib; first compound 0.8 µM) | relative viability (AZD1208 + Dasatinib; first compound 2.53 µM) | relative viability (AZD1208 + Dasatinib; first compound 8 µM) | relative viability (AZD1208 + Navitoclax; first compound 0.08 µM) | relative viability (AZD1208 + Navitoclax; first compound 0.253 µM) | relative viability (AZD1208 + Navitoclax; first compound 0.8 µM) | relative viability (AZD1208 + Navitoclax; first compound 2.53 µM) | relative viability (AZD1208 + Navitoclax; first compound 8 µM) | relative viability (AZD1208 + AZD7762; first compound 0.08 µM) | relative viability (AZD1208 + AZD7762; first compound 0.253 µM) | relative viability (AZD1208 + AZD7762; first compound 0.8 µM) | relative viability (AZD1208 + AZD7762; first compound 2.53 µM) | relative viability (AZD1208 + AZD7762; first compound 8 µM) | relative viability (AZD1208 + Luminespib; first compound 0.08 µM) | relative viability (AZD1208 + Luminespib; first compound 0.253 µM) | relative viability (AZD1208 + Luminespib; first compound 0.8 µM) | relative viability (AZD1208 + Luminespib; first compound 2.53 µM) | relative viability (AZD1208 + Luminespib; first compound 8 µM) |
| --- | --- | --- | --- | --- | --- | --- | --- | --- | --- | --- | --- | --- | --- | --- | --- | --- | --- | --- | --- | --- |
| HCC-366 | 0.625 | 0.64 | 0.479 | 0.493 | 0.287 | 1.1 | 0.965 | 1.02 | 1.05 | 0.927 | 0.368 | 0.362 | 0.371 | 0.41 | 0.387 | – | – | – | – | – |
| HCC-827 | 0.286 | 0.297 | 0.263 | 0.255 | 0.247 | 1.05 | 1.11 | 0.984 | 1.07 | 0.983 | 0.205 | 0.259 | 0.237 | 0.239 | 0.197 | 0.735 | 0.677 | 0.307 | 0.373 | 0.408 |
| HOP-62 | 0.679 | 0.712 | 0.541 | 0.572 | 0.647 | 1.05 | 0.886 | 1.05 | 0.969 | 1.07 | 0.859 | 0.794 | 0.612 | 0.66 | 0.824 | 0.918 | 1.07 | 0.904 | 0.916 | 0.956 |
| IA-LM | – | – | – | – | – | 0.812 | 0.865 | 0.651 | 0.621 | 0.794 | – | – | – | – | – | – | – | – | – | – |
| LCLC-103H | 0.448 | 0.501 | 0.421 | 0.448 | 0.33 | – | – | – | – | – | 0.843 | 0.84 | 0.774 | 0.74 | 0.689 | 1.01 | 1.01 | 0.995 | 0.859 | 0.944 |
| NCI-H358 | 0.138 | 0.142 | 0.139 | 0.116 | 0.142 | – | – | – | – | – | 0.454 | 0.579 | 0.436 | 0.467 | 0.451 | 0.38 | 0.307 | 0.514 | 0.319 | 0.122 |
| NCI-H520 | 0.151 | 0.196 | 0.173 | 0.154 | 0.178 | 0.973 | 1.22 | 0.991 | 0.838 | 0.767 | – | – | – | – | – | 0.253 | 0.246 | 0.212 | 0.201 | 0.207 |
| NCI-H522 | 0.828 | 0.774 | 0.911 | 0.78 | 0.717 | – | – | – | – | – | 0.773 | 0.892 | 0.756 | 0.747 | 0.584 | 1.03 | 1.15 | 0.841 | 0.935 | 0.973 |
| NCI-H650 | 0.509 | 0.451 | 0.385 | 0.379 | 0.338 | – | – | – | – | – | 1.05 | 1.09 | 0.795 | 0.833 | 0.871 | 0.865 | 0.768 | 0.789 | 0.757 | 0.819 |
| NCI-H661 | 0.95 | 0.98 | 0.864 | 0.777 | 0.902 | – | – | – | – | – | – | – | – | – | – | 0.977 | 1.02 | 0.955 | 0.939 | 0.998 |
| NCI-H1299 | – | – | – | – | – | 1.1 | 1.09 | 1.08 | 1 | 1.04 | – | – | – | – | – | – | – | – | – | – |
| NCI-H1563 | 0.465 | 0.433 | 0.421 | 0.447 | 0.395 | – | – | – | – | – | – | – | – | – | – | 0.556 | 0.532 | 0.561 | 0.478 | 0.504 |
| NCI-H1623 | 0.633 | 0.514 | 0.484 | 0.438 | 0.632 | – | – | – | – | – | – | – | – | – | – | 0.444 | 0.393 | 0.365 | 0.324 | 0.372 |
| NCI-H1648 | – | – | – | – | – | – | – | – | – | – | 0.584 | 0.618 | 0.684 | 0.533 | 1.28 | – | – | – | – | – |
| NCI-H1650 | 0.267 | 0.311 | 0.255 | 0.261 | 0.296 | 1.07 | 1.15 | 1.04 | 1.02 | 1.19 | – | – | – | – | – | 0.208 | 0.151 | 0.188 | 0.211 | 0.204 |
| NCI-H1703 | – | – | – | – | – | 0.98 | 1.19 | 0.88 | 0.878 | 0.783 | 0.116 | 0.0963 | 0.18 | 0.128 | 0.102 | – | – | – | – | – |
| NCI-H2009 | 0.257 | 0.267 | 0.279 | 0.249 | 0.304 | 1.2 | 1.14 | 1.12 | 1.21 | 1.15 | – | – | – | – | – | 1.1 | 1.04 | 1.06 | 1.09 | 1.05 |
| NCI-H2023 | 0.506 | 0.614 | 0.457 | 0.472 | 0.493 | 1.02 | 0.99 | 0.977 | 0.934 | 0.959 | – | – | – | – | – | 0.677 | 0.75 | 0.588 | 0.597 | 0.416 |
| NCI-H2228 | 0.476 | 0.521 | 0.398 | 0.43 | 0.342 | 0.782 | 0.766 | 0.713 | – | 0.51 | – | – | – | – | – | 0.162 | 0.112 | 0.125 | 0.136 | 0.163 |
| NCI-H2342 | 0.284 | 0.354 | 0.28 | 0.3 | 0.267 | – | – | – | – | – | 0.553 | 0.417 | 0.461 | 0.474 | 0.409 | 0.686 | 0.713 | 0.653 | 0.672 | 0.533 |
| SK-LU-1 | 0.162 | 0.14 | 0.154 | 0.168 | 0.133 | 0.56 | 0.874 | 0.883 | 0.774 | 0.813 | – | – | – | – | – | 0.186 | 0.198 | 0.194 | 0.226 | 0.198 |
| SK-MES-1 | 0.336 | 0.336 | 0.284 | 0.341 | 0.306 | 1.08 | 1.41 | 1.08 | 1.03 | 0.926 | – | – | – | – | – | 0.771 | 0.736 | 0.607 | 0.689 | 0.531 |
| SW 900 | 0.456 | 0.693 | 0.427 | 0.547 | 0.367 | – | – | – | – | – | 0.62 | 0.518 | 0.453 | 0.576 | 0.485 | 0.191 | 0.172 | 0.167 | 0.185 | 0.162 |
| SW 1573 | 0.404 | 0.537 | 0.438 | 0.586 | 0.319 | 0.896 | 0.948 | 0.765 | 0.995 | 0.717 | – | – | – | – | – | 0.292 | 0.429 | 0.198 | 0.152 | 0.208 |
